Results as given in patent US20060252807A1, “Novel ortho-terphenyl inhibitors of p38 kinase and methods of treating inflammatory disorders” (Kalypsys, Inc., priority 2005, published 2006).

biological target: T1, active p38 alpha enzyme (Upstate Biotechnology) (Homo sapiens, UniProt Q16539); experiment: p38α biochemical assay (ATP turnover, luminescent detection, Cambrex PKlight); conditions: p38α biochemical assay, Table 1 Biological Activity
T1 construct: purchased Upstate Biotechnology
Method in brief: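 Active p38α phosphorylates MapkapK2 whole protein with 1.4 uM final ATP, 2 h at 30C, in Tris/MOPS buffer with MgCl2, CaCl2, EGTA, EDTA, glycerol, β-mercaptoethanol and 1 mg/ml BSA. Compounds pin-delivered from DMSO; total ATP turnover read by luminescence after PKlight addition.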

T1 sequence (Q16539 whole entry): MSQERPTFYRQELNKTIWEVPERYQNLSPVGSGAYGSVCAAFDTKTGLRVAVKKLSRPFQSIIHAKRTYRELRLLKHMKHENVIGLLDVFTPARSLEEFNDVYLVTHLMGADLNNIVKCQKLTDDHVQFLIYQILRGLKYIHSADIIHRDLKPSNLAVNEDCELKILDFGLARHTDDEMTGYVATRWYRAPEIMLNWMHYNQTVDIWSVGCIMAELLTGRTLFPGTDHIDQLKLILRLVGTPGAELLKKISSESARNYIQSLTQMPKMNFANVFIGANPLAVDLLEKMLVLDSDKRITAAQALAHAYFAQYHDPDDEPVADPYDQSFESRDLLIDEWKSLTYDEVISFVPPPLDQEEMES

SMILES	IC50
CCCCc1ccc(C(=O)NCc2nc(-c3ccc(F)cc3)c(-c3nc(C(=O)NC(C)C)cs3)o2)cc1 [Example 208]	> 1000 nM
Cc1cc(C)c(C(=O)N2CCN(Cc3nc(-c4ccc(F)cc4)c(-c4nc(C(=O)NC(C)C)cs4)o3)CC2)c(C)c1 [Example 412]	≤ 1000 nM
CCCCOc1ccc(C(=O)N2CCN(Cc3nc(-c4ccc(F)cc4)c(-c4nc(C(=O)NC(C)C)cs4)o3)CC2)cc1 [Example 500]	≤ 1000 nM
CC(C)NC(=O)c1csc(-c2c(-c3ccc(F)cc3)noc2CNC(=O)c2csc3ccccc23)n1 [Example 681]	> 1000 nM
CC(C)NC(=O)c1csc(-c2oc(CNC(=O)c3ccc4c(c3)OCO4)nc2-c2ccc(F)cc2)n1 [Example 177]	> 1000 nM
CC(C)NC(=O)c1csc(-c2oc(CNC(=O)c3cccc(Cl)c3[N+](=O)[O-])nc2-c2ccc(F)cc2)n1 [Example 270]	≤ 1000 nM
CC(C)NC(=O)c1csc(-c2oc(CNC(=O)C(Cc3ccc(O)cc3)NC(=O)OC(C)(C)C)nc2-c2ccc(F)cc2)n1 (stereo not shown) [Example 334]	≤ 1000 nM
Cc1nc(-c2ccc(F)cc2)c(-c2nc(C(=O)NC3CCC3)cs2)s1 [Example 50, 4′-(4-Fluoro-phenyl)-2′-methyl-|2,5′|bithiazolyl-4-carboxylic acid cyclobutylamide]	≤ 1000 nM
COc1cccc(OC)c1C(=O)NCc1nc(-c2ccc(F)cc2)c(-c2nc(C(=O)NC(C)C)cs2)o1 [Example 226]	≤ 1000 nM
CC(C)NC(=O)c1csc(-c2oc(CN3CCN(C(=O)c4ccccc4C(=O)c4ccc(F)cc4)CC3)nc2-c2ccc(F)cc2)n1 [Example 560]	> 1000 nM
CC(C)NC(=O)c1csc(-c2c(-c3ccc(F)cc3)noc2CNC(=O)c2ccc(OCc3ccccc3)cc2)n1 [Example 783]	> 1000 nM
CC(C)NC(=O)c1csc(-c2oc(CNC(=O)c3ccc(C(F)(F)F)cc3[N+](=O)[O-])nc2-c2ccc(F)cc2)n1 [Example 319]	≤ 1000 nM
CC(C)NC(=O)c1csc(-c2oc(CNC(=O)c3cccc(Br)c3)nc2-c2ccc(F)cc2)n1 [Example 268]	> 1000 nM
CC(C)CC(NC(=O)OC(C)(C)C)C(=O)N1CCN(Cc2nc(-c3ccc(F)cc3)c(-c3nc(C(=O)NC(C)C)cs3)o2)CC1 (stereo not shown) [Example 566]	> 1000 nM
CC(C)NC(=O)c1csc(-c2oc(CNC(=O)c3cc4ccccc4o3)nc2-c2ccc(F)cc2)n1 [Example 163]	> 1000 nM
CCCCCCCC(=O)NCc1onc(-c2ccc(F)cc2)c1-c1nc(C(=O)NC(C)C)cs1 [Example 603]	> 1000 nM
CC(C)NC(=O)c1csc(-c2c(-c3ccc(F)cc3)noc2CNC(=O)c2cccc3ccccc23)n1 [Example 669]	≤ 1000 nM
CC(C)NC(=O)c1csc(-c2c(-c3ccc(F)cc3)noc2CNC(=O)c2cccc(F)c2)n1 [Example 602]	> 1000 nM
CC(C)NC(=O)c1csc(-c2oc(CN3CCN(C(=O)Cc4ccc(C(F)(F)F)cc4)CC3)nc2-c2ccc(F)cc2)n1 [Example 516]	≤ 1000 nM
CC(C)NC(=O)c1csc(-c2oc(CNC(=O)c3ccccc3Cl)nc2-c2ccc(F)cc2)n1 [Example 151]	≤ 1000 nM
Cc1onc(-c2ccc(Cl)cc2)c1-c1ccn(C(=O)NCC(C)C)n1 [Example 15, 3-|3-(4-Chloro-phenyl)-5-methyl-isoxazol-4-yl|-pyrazole-1-carboxylic acid isobutyl-amide]	≤ 1000 nM
CC(C)NC(=O)c1csc(-c2oc(CN3CCN(C(=O)c4cc(F)ccc4[N+](=O)[O-])CC3)nc2-c2ccc(F)cc2)n1 [Example 473]	> 1000 nM
COc1ccc(O)c(C(=O)NCc2onc(-c3ccc(F)cc3)c2-c2nc(C(=O)NC(C)C)cs2)c1 [Example 662]	> 1000 nM
COc1cc(OC)c(C(=O)NCc2onc(-c3ccc(F)cc3)c2-c2nc(C(=O)NC(C)C)cs2)c(OC)c1 [Example 758]	> 1000 nM
COc1cc(C(=O)NCc2onc(-c3ccc(F)cc3)c2-c2nc(C(=O)NC(C)C)cs2)cc(Cl)n1 [Example 716]	> 1000 nM
CC(C)NC(=O)c1csc(-c2oc(CNC(=O)c3cncc(Br)c3)nc2-c2ccc(F)cc2)n1 [Example 277]	≤ 1000 nM
COc1ccc(C(=O)N2CCN(Cc3nc(-c4ccc(F)cc4)c(-c4nc(C(=O)NC(C)C)cs4)o3)CC2)cc1 [Example 378]	> 1000 nM
CC(C)NC(=O)c1csc(-c2oc(CNC(=O)c3cccc(Cl)c3Cl)nc2-c2ccc(F)cc2)n1 [Example 251]	≤ 1000 nM
CC(C)NC(=O)c1csc(-c2oc(CN3CCN(C(=O)c4ccc(C=O)cc4)CC3)nc2-c2ccc(F)cc2)n1 [Example 370]	> 1000 nM

same assay, conditions: p38α kinase; Table 1 Biological Activity

SMILES	IC50
CC(C)NC(=O)c1csc(-c2oc(CNCCc3c[nH]c4ccccc34)nc2-c2ccc(F)cc2)n1 [Example 1157]	> 1000 nM
O=C(NCc1cccc(C(F)(F)F)c1)c1csc(-c2c(-c3ccc(F)cc3)n[nH]c2C2CCNCC2)n1 [Example 2144]	> 1000 nM
Cc1nc(-c2ccc(F)cc2)c(-c2nc(C(=O)NCCCO)cs2)s1 [Example 1718]	≤ 1000 nM
CC(C)NC(=O)c1csc(-c2oc(CN3CCN(C(=O)OC(C)(C)C)CC3)nc2-c2ccc(F)cc2)n1 [Example 1258]	> 1000 nM
CC(C)NC(=O)c1csc(-c2c(-c3ccc(F)cc3)n[nH]c2C2CCN(C(=O)C3CCCN3C(=O)OCc3ccccc3)CC2)n1 (stereo not shown) [Example 1041]	> 1000 nM
COc1cc(C(=O)N2CCC(c3[nH]nc(-c4ccc(F)cc4)c3-c3nc(C(=O)NC(C)C)cs3)CC2)cc(OC)c1OC [Example 999]	> 1000 nM
COc1cccc(CNC(=O)c2csc(-c3sc(C)nc3-c3ccc(F)cc3)n2)c1 [Example 1781]	≤ 1000 nM
CCCN(CCC)C(=O)c1csc(-c2sc(C)nc2-c2ccc(F)cc2)n1 [Example 1853]	> 1000 nM
Cc1ccc(C)c(NCc2nc(-c3ccc(F)cc3)c(-c3nc(C(=O)NC(C)C)cs3)o2)c1 [Example 1317]	> 1000 nM
COc1cc(/C=C/C(=O)N2CCC(c3[nH]nc(-c4ccc(F)cc4)c3-c3nc(C(=O)NC(C)C)cs3)CC2)ccc1O [Example 975]	> 1000 nM
CCC(C)CNC(=O)c1csc(-c2c(-c3ccc(F)cc3)n[nH]c2C2CCNCC2)n1 (stereo not shown) [Example 2046]	> 1000 nM
CC(C)NC(=O)c1csc(-c2c(-c3ccc(F)cc3)noc2CN(C)CCc2ccccn2)n1 [Example 1553]	> 1000 nM
CC(C)NC(=O)c1csc(-c2c(-c3ccc(F)cc3)noc2CNc2ccc3c(c2)OCO3)n1 [Example 1662]	> 1000 nM
COc1cccc(N2CCN(Cc3onc(-c4ccc(F)cc4)c3-c3nc(C(=O)NC(C)C)cs3)CC2)c1 [Example 1597]	> 1000 nM
CC(C)NC(=O)c1csc(-c2c(-c3ccc(F)cc3)noc2CN2CCN(C)CC2)n1 [Example 1524]	> 1000 nM
Cc1nc(-c2ccc(F)cc2)c(-c2nc(C(=O)NCCc3ccc4c(c3)OCO4)cs2)s1 [Example 1830]	≤ 1000 nM
Cc1cccc(NCc2onc(-c3ccc(F)cc3)c2-c2nc(C(=O)NC(C)C)cs2)c1 [Example 1631]	> 1000 nM
CC(C)NC(=O)c1csc(-c2oc(CNC(C)C(C)C)nc2-c2ccc(F)cc2)n1 (stereo not shown) [Example 1069]	≤ 1000 nM
COc1cccc(OC)c1C(=O)N1CCC(c2[nH]nc(-c3ccc(F)cc3)c2-c2nc(C(=O)NC(C)C)cs2)CC1 [Example 940]	> 1000 nM

SMILES	IC50
CC(=O)c1ccc(N2CCN(C(=O)c3csc(-c4sc(C)nc4-c4ccc(F)cc4)n3)CC2)cc1 [Example 1931]	> 1000 nM
CC(C)NC(=O)c1csc(-c2c(-c3ccc(F)cc3)noc2CNCc2ccc(F)c(F)c2)n1 [Example 1466]	> 1000 nM
CC(C)NC(=O)c1csc(-c2c(-c3ccc(F)cc3)n[nH]c2C2CCN(C(=O)c3cc(C(C)C)cc(C(C)C)c3O)CC2)n1 [Example 1018]	> 1000 nM
COc1ccc(-c2ccccc2)cc1NCc1nc(-c2ccc(F)cc2)c(-c2nc(C(=O)NC(C)C)cs2)o1 [Example 1370]	> 1000 nM
Cc1nc(-c2ccc(F)cc2)c(-c2nc(C(=O)NC3CCN(Cc4ccccc4)CC3)cs2)s1 [Example 1826]	> 1000 nM
COc1ccc(NCc2nc(-c3ccc(F)cc3)c(-c3nc(C(=O)NC(C)C)cs3)o2)c(C)c1 [Example 1340]	> 1000 nM
CC(C)NC(=O)c1csc(-c2c(-c3ccc(F)cc3)noc2CNC2CCCc3ccccc32)n1 (stereo not shown) [Example 1671]	> 1000 nM
COCCOCn1nc(-c2ccc(F)cc2)c(-c2nc(C=NOC)cs2)c1C (single isomer, unassigned) [Example 2186, 2-|3-(4-Fluoro-phenyl)-1-(2-methoxy-ethoxymethyl)-5-methyl-1H-pyrazol-4-yl|-thiazole-4-carbaldehyde O-methyl-oxime]	> 1000 nM
CCOc1ccc(OCC)c(NC(=O)c2csc(-c3sc(C)nc3-c3ccc(F)cc3)n2)c1 [Example 2016]	> 1000 nM
Cc1ccc(NCc2nc(-c3ccc(F)cc3)c(-c3nc(C(=O)NC(C)C)cs3)o2)nc1 [Example 1311]	> 1000 nM
CC(C)NC(=O)c1csc(-c2c(-c3ccc(F)cc3)n[nH]c2C2CCN(C(=O)C3=CCCC3)CC2)n1 [Example 821]	> 1000 nM
COc1ccccc1NCc1onc(-c2ccc(F)cc2)c1-c1nc(C(=O)NC(C)C)cs1 [Example 1649]	> 1000 nM
COc1cccc(CCNC(=O)c2csc(-c3sc(C)nc3-c3ccc(F)cc3)n2)c1 [Example 1797]	≤ 1000 nM
CC1=CCC(CCNCc2nc(-c3ccc(F)cc3)c(-c3nc(C(=O)NC(C)C)cs3)o2)C=C1 (stereo not shown) [Example 1113]	> 1000 nM
CCN(CC)CCN(Cc1ccccc1)Cc1onc(-c2ccc(F)cc2)c1-c1nc(C(=O)NC(C)C)cs1 [Example 1607]	> 1000 nM
O=C(NCC1CCCO1)c1csc(-c2c(-c3ccc(F)cc3)n[nH]c2C2CCNCC2)n1 (stereo not shown) [Example 2056]	> 1000 nM
CC(C)NC(=O)c1csc(-c2c(-c3ccc(F)cc3)noc2CNCCN2CCOCC2)n1 [Example 1441]	> 1000 nM
CCN(CC)CCNC(=O)c1csc(-c2c(-c3ccc(F)cc3)n[nH]c2C2CCNCC2)n1 [Example 2072]	> 1000 nM
Cc1nc(-c2ccc(F)cc2)c(-c2nc(C(=O)NCC(C)C)cs2)s1 [Example 1717]	> 1000 nM
